From PMC7617969, “Carboxylic Acid Bioisosteres Boost Nurr1 Agonist Selectivity” (Journal of medicinal chemistry, 2025)
Several values for one entry are separate records, joined by “and”; a condition that tells them apart may be missing. Equal values may be shown once.

Tests used:
[1] = biological target: T1, NOR1 (Homo sapiens, UniProt Q92570); experiment: Gal4-NOR1 hybrid reporter gene assay; assay type: cell-based
T1 construct: expressed in transfected cells; host or cells: HEK293T
T1 sequence (Q92570 394-623 limits assumed): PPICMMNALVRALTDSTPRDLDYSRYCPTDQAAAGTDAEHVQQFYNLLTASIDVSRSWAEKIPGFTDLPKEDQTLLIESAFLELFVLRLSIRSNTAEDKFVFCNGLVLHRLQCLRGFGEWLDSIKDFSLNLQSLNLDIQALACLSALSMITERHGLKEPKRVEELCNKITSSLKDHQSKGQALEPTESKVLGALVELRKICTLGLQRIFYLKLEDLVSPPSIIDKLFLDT
Description: NR modulation was determined in Gal4 hybrid reporter gene assays in HEK293T cells (German Collection of Microorganisms and Cell Culture GmbH, DSMZ) using pFR-Luc (Stratagene, La Jolla, CA, USA; reporter), pRL-SV40 (Promega, Madison, WI, USA; internal control) and pFA-CMV-hNR-LBD[47],[48] plasmids coding for the hinge region and ligand binding domain of the canonical isoform of the respective NR. Cells were cultured in Dulbecco’s modified Eagle’s medium (DMEM), high glucose supplemented with 10% fetal calf serum (FCS), sodium pyruvate (1 mM), penicillin (100 U/mL), and streptomycin (100 μg/mL) at 37°C and 5% CO2 and seeded in 96-well plates (3×10^4 cells/well). […] Five hours after transfection, cells were incubated with the test compounds in Opti-MEM supplemented with penicillin (100 U/mL), streptomycin (100 μg/mL) and 0.1% DMSO for 16 h before luciferase activity was measured using the Dual-Glo Luciferase Assay System (Promega) according to the manufacturer’s protocol on a Tecan Spark luminometer (Tecan Deutschland GmbH, Crailsheim, Germany). Firefly luminescence was divided by Renilla luminescence and multiplied by 1000 resulting in relative light units (RLU) to normalize for transfection efficiency and cell growth. […]

[2] = biological target: T2, recombinant Nurr1 LBD (Homo sapiens, UniProt P43354); experiment: Isothermal titration calorimetry (ITC); assay type: binding; conditions: 25 °C
T2 construct: Nurr1 LBD protein (15 μM, expressed as described previously[18]); made in house
Description: ITC experiments were conducted on an Affinity ITC instrument (TA Instruments, New Castle, DE, USA) at 25 °C with a stirring rate of 75 rpm. Nurr1 LBD protein (15 μM, expressed as described previously[18]) in buffer (20 mM Tris, pH 7.5, 100 mM NaCl, 5% glycerol) containing 5% DMSO was titrated with 32 (100 μM in the same buffer containing […]) in 21 injections (1 × 1 µL and 20 × 4 μL) with an injection interval of 120 s. As control experiments, the test compound was titrated to the buffer, and the buffer was titrated to the Nurr1 LBD protein under otherwise identical conditions. The heats of the compound−protein titration were analyzed using NanoAnalyze software (version 3.11.0, TA Instruments) with independent binding model.

[3] = test system: THR; experiment: Gal4 hybrid reporter gene assay, selectivity panel; assay type: cell-based, human; conditions: 1 µM; relative activation compared to reference agonists
Description: (§1) NR modulation was determined in Gal4 hybrid reporter gene assays in HEK293T cells (German Collection of Microorganisms and Cell Culture GmbH, DSMZ) using pFR-Luc (Stratagene, La Jolla, CA, USA; reporter), pRL-SV40 (Promega, Madison, WI, USA; internal control) and pFA-CMV-hNR-LBD[47],[48] plasmids coding for the hinge region and ligand binding domain of the canonical isoform of the respective NR. Cells were cultured in Dulbecco’s modified Eagle’s medium (DMEM), high glucose supplemented with 10% fetal calf serum (FCS), sodium pyruvate (1 mM), penicillin (100 U/mL), and streptomycin (100 μg/mL) at 37°C and 5% CO2 and seeded in 96-well plates (3×10^4 cells/well). After 24 h, medium was changed to Opti-MEM without supplements and cells were transiently transfected using Lipofectamine LTX reagent (Invitrogen, Carlsbad, CA, USA) according to the manufacturer’s protocol. Five hours after transfection, cells were incubated with the test compounds in Opti-MEM supplemented with penicillin (100 U/mL), streptomycin (100 μg/mL) and 0.1% DMSO for 16 h before luciferase activity was measured using the Dual-Glo Luciferase Assay System (Promega) according to the manufacturer’s protocol on a Tecan Spark luminometer (Tecan Deutschland GmbH, Crailsheim, Germany). Firefly luminescence was divided by Renilla luminescence and multiplied by 1000 resulting in relative light units (RLU) to normalize for transfection efficiency and cell growth. Fold activation was obtained by dividing the mean RLU of test compound by the mean RLU of the untreated control. All samples were tested in at least three biologically independent experiments in duplicates. For dose-response curve fitting and calculation of EC50 values, the equation “[Agonist] vs. response -- Variable slope (four parameters)” was used in GraphPad Prism (version 7.00, GraphPad Software, La Jolla, CA, USA).

[4] = test system: RXR; experiment: Gal4 hybrid reporter gene assay, selectivity panel; assay type: cell-based, human; conditions: 1 µM; relative activation compared to reference agonists
Description: as §1

[5] = test system: PPAR; experiment: Gal4 hybrid reporter gene assay, selectivity panel; assay type: cell-based, human; conditions: 1 µM; relative activation compared to reference agonists
Description: as §1

[6] = test system: RAR; experiment: Gal4 hybrid reporter gene assay, selectivity panel; assay type: cell-based, human; conditions: 1 µM; relative activation compared to reference agonists
Description: as §1

[7] = biological target: T3, Nurr1 (Homo sapiens, UniProt P43354); experiment: Gal4-Nurr1 hybrid reporter gene assay; assay type: cell-based
T3 construct: expressed in transfected cells; host or cells: HEK293T

[8] = biological target: T4, DHODH (Homo sapiens, UniProt Q02127); experiment: DHODH inhibition colorimetric assay on recombinant human protein; assay type: biochemical; conditions: recombinant human DHODH, colorimetric; mean ± S.E.M., n ≥ 3; read-out: IC50 (DHODH)
T4 construct: using an N-terminally truncated recombinant DHODH enzyme as described previously[20]

[9] = biological target: T5, VDR (Homo sapiens, UniProt P11473); experiment: Gal4 hybrid reporter gene assay, selectivity panel; assay type: cell-based; conditions: 1 µM; relative activation compared to reference agonists
T5 construct: expressed in transfected cells; host or cells: HEK293T
T5 sequence (P11473 127-423 limits assumed): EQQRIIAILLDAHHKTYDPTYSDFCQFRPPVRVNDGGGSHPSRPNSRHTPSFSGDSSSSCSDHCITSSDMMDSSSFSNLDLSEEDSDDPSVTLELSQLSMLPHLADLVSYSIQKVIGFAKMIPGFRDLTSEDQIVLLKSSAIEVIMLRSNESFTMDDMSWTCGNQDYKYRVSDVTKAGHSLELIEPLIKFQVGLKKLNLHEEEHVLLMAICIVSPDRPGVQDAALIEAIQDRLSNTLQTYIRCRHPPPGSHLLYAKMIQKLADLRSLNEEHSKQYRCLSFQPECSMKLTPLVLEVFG
Description: as §1

[10] = biological target: T6, FXR (Homo sapiens, UniProt Q96RI1); experiment: Gal4 hybrid reporter gene assay, selectivity panel; assay type: cell-based; conditions: 1 µM; relative activation compared to reference agonists
T6 construct: expressed in transfected cells; host or cells: HEK293T
T6 sequence (Q96RI1 262-486 limits assumed): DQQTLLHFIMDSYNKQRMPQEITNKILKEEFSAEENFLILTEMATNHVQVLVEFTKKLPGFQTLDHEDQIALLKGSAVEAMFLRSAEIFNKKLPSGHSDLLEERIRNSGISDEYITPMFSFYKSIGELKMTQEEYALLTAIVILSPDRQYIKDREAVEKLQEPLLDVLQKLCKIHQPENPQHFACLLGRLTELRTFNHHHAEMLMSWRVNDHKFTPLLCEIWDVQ
Description: as §1

[11] = biological target: T7, PXR (Homo sapiens, UniProt O75469); experiment: Gal4 hybrid reporter gene assay, selectivity panel; assay type: cell-based; conditions: 1 µM; relative activation compared to reference agonists
T7 construct: expressed in transfected cells; host or cells: HEK293T
Description: as §1

[12] = biological target: T8, CAR (Homo sapiens, UniProt Q14994); experiment: Gal4 hybrid reporter gene assay, selectivity panel; assay type: cell-based; conditions: 1 µM; relative activation compared to reference agonists
T8 construct: expressed in transfected cells; host or cells: HEK293T
T8 sequence (Q14994 109-352 limits assumed): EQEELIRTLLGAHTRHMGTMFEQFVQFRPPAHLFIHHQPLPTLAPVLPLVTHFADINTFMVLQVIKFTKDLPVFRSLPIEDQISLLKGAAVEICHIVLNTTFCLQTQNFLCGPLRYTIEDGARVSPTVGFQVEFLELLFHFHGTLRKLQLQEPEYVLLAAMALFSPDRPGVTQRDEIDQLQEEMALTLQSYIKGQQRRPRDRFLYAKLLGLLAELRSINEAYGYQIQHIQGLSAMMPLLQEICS
Description: as §1

T3 sequence (P43354 360-595 limits assumed): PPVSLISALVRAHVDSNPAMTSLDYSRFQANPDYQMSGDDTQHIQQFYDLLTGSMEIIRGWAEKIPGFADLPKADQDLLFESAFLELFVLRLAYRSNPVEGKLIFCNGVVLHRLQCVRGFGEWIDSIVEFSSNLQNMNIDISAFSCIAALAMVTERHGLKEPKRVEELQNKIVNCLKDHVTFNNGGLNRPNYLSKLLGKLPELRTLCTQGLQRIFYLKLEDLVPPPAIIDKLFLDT
T4 sequence (Q02127 31-395): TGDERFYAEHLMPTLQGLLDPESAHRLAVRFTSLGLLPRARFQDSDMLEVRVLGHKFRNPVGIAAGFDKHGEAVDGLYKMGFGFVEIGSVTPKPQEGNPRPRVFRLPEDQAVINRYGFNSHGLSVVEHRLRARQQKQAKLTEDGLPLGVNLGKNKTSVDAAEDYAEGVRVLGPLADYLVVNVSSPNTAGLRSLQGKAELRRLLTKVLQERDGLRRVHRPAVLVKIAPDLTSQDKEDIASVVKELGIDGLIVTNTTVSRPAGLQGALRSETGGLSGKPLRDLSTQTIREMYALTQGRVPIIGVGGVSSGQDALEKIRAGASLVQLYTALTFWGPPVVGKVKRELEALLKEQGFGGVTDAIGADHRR
T7 sequence (O75469 146-433): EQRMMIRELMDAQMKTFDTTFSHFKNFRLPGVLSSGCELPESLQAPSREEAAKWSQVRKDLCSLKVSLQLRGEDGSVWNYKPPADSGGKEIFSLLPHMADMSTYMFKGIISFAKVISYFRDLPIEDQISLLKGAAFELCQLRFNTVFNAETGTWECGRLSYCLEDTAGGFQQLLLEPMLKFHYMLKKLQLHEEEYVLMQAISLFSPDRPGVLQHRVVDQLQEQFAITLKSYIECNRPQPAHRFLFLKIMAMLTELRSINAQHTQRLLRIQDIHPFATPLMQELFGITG
T2 sequence (P43354 360-595 limits assumed): as the sequence (P43354 360-595 limits assumed) above

COc1cccc(-c2ccc(NC(=O)C3=C(c4nn[nH]n4)CCC3)c(F)c2)c1 [compound 32, N-{3-Fluoro-3’-methoxy-[1,1'-biphenyl]-4-yl}-2-(2H-tetrazol-5-yl)cyclopent-1-ene-1-carboxamide]
EC50 [1]: 120 ± 10 nM
fold activation (NOR1) [1]: 1.8 fold
Kd [2]: 200 nM
activity on THR [3]: no activity
activity on RXR [4]: no activity
activity on PPAR [5]: no activity
activity on RAR [6]: no activity
Nurr1 preference/selectivity over DHODH [7]: > 100 fold
EC50 ([7]; Gal4-Nurr1 hybrid reporter gene assay, HEK293T cells, mean ± S.E.M., n ≥ 3): 90 ± 10 nM
max. activation (Nurr1) ([7]; Gal4-Nurr1 hybrid reporter gene assay, fold activation vs untreated control): 2.5 fold and 2.5±0.1 fold
selectivity index DHODH/Nurr1 ([7]; IC50(DHODH) / EC50(Nurr1)): 110
efficacy_NR4A2 ([7]; supplementary csv, max. activation in %): 250%
IC50 [8]: 10000 ± 2000 nM
activity on VDR [9]: no activity
activity on FXR [10]: no activity
activity on PXR [11]: no activity
activity on CAR [12]: no activity
